This assay deals with T1, α-synuclein peptide fragments (Peptide 4F, CTGFVKKDQLGK) (Homo sapiens, UniProt P37840).
T1 construct: purchased American Peptide
Put plainly: In-vitro fluorescence polarization assay with alpha-synuclein peptide fragment (4F). The assay is classed as biochemical. Conditions: peptide 4F 100 nM, 120 min at room temperature, compound 33.3 to 0.015 microM, 50 mM HEPES pH 7.4, 50 mM NaCl, read-out: IC50 (inhibition of self-aggregation of α-synuclein peptide fragment 4F). How it is done: Biological Example 1: In-Vitro Fluorescence Polarization Assay with Alpha-Synuclein Peptide Fragment (4F)
The fluorescence polarization assay tests the ability of compounds to inhibit the self-aggregation of α-synuclein peptide fragments. Peptides were incubated for 120 min at room temperature in the presence or absence of test compounds (compound concentrations were 33.3 to 0.015 microM). Samples were read on a Beckman Coulter DTX 880 plate reader in fluorescence polarization mode using excitation at 485 nm and emission at 520 nm. Data was analyzed using a four-parameter logistic fit (XLFit, IDBS Software). Peptide 4F (CTGFVKKDQLGK (SEQ ID NO: 1)) was prepared by American Peptide. Fresh peptide samples were reconstituted in purified water at 5 mM and diluted into 50 mM HEPES pH 7.4 with 50 mM NaCl to 100 nM final concentration. Solid compounds were dissolved in DMSO (10 mM), and then diluted serially in DMSO (300×) followed by dilution in buffer (1×) to provide solutions with a consistent final DMSO concentration of 0.33%.
The IC50 is the concentration needed to halve the response being measured. In the case of `CCCCC(Cc1c[nH]c2ccccc12)NC(=O)c1cnc(N2Cc3cn[nH]c3C2)s1` (centres unmarked) [Example 1, 2-(4,6-dihydro-1H-pyrrolo[3,4-c]pyrazol-5-yl)-N-[1-(1H-indol-3-ylmethyl)pentyl]thiazole-5-carboxamide], the IC50 was found to be 2400 nM.

As for `CCCCC(Cc1c[nH]c2ccccc12)NC(=O)c1cnc(N2CCn3cnnc3C2)s1` (centres unmarked) [Example 2, 2-(6,8-dihydro-5H-[1,2,4]triazolo[4,3-a]pyrazin-7-yl)-N-[1-(1H-indol-3-ylmethyl)pentyl]thiazole-5-carboxamide], the IC50 came to 2300 nM.

For the molecule `CCCCC(Cc1c[nH]c2ccccc12)NC(=O)c1cnc(N2CCc3[nH]ncc3C2)s1` (centres unmarked) [Example 3, N-[1-(1H-indol-3-ylmethyl)pentyl]-2-(1,4,6,7-tetrahydropyrazolo[4,3-c]pyridin-5-yl)thiazole-5-carboxamide], the IC50 was 2200 nM.

With `CCCCC(Cc1c[nH]c2ccccc12)NC(=O)c1cnc(N2CCn3nc(C)cc3C2)s1` (centres unmarked) [Example 4, N-[1-(1H-indol-3-ylmethyl)pentyl]-2-(2-methyl-6,7-dihydro-4H-pyrazolo[1,5-a]pyrazin-5-yl)thiazole-5-carboxamide], the half-inhibitory concentration (IC50) was 1400 nM.

Turning to `CCCCC(Cc1c[nH]c2ccccc12)NC(=O)c1cnc(N2Cc3cnn(C)c3C2)s1` (centres unmarked) [Example 5, N-[1-(1H-indol-3-ylmethyl)pentyl]-2-(1-methyl-4,6-dihydropyrrolo[3,4-c]pyrazol-5-yl)thiazole-5-carboxamide], the IC50 is 2100 nM.

Take `CCCCC(Cc1c[nH]c2ccccc12)NC(=O)c1cnc(N2CCn3nncc3C2)s1` (centres unmarked) [Example 6, 2-(6,7-dihydro-4H-triazolo[1,5-a]pyrazin-5-yl)-N-[1-(1H-indol-3-ylmethyl)pentyl]thiazole-5-carboxamide]: the half-maximal inhibitory concentration (IC50) worked out at 2600 nM.

Regarding `CCCCC(Cc1c[nH]c2ccccc12)NC(=O)c1cnc(N2CCn3ncnc3C2)s1` (centres unmarked) [Example 7, 2-(6,8-dihydro-5H-[1,2,4]triazolo[1,5-a]pyrazin-7-yl)-N-[1-(1H-indol-3-ylmethyl)pentyl]thiazole-5-carboxamide], the IC50 was 2200 nM.

As to `CCCCC(Cc1c[nH]c2ccccc12)NC(=O)c1cnc(N2CCn3nc(C)nc3C2)s1` (centres unmarked) [Example 8, N-[1-(1H-indol-3-ylmethyl)pentyl]-2-(2-methyl-6,8-dihydro-5H-[1,2,4]triazolo[1,5-a]pyrazin-7-yl)thiazole-5-carboxamide], the IC50 came out at 1600 nM.

As for `CCCCC(Cc1c[nH]c2ccccc12)NC(=O)c1cnc(N2CCn3cncc3C2)s1` (centres unmarked) [Example 9, 2-(6,8-dihydro-5H-imidazo[1,5-a]pyrazin-7-yl)-N-[1-(1H-indol-3-ylmethyl)pentyl]thiazole-5-carboxamide], the IC50 was found to be 1500 nM.

As to `CCCCC(Cc1c[nH]c2ccccc12)NC(=O)c1cnc(N2CCc3onc(C)c3C2)s1` (centres unmarked) [Example 10, N-[1-(1H-indol-3-ylmethyl)pentyl]-2-(3-methyl-6,7-dihydro-4H-isoxazolo[4,5-c]pyridin-5-yl)thiazole-5-carboxamide], the IC50 came out at 840 nM.

`CCCCC(Cc1c[nH]c2ccccc12)NC(=O)c1cnc(N2CCc3onc(C(F)(F)F)c3C2)s1` (centres unmarked) [Example 11, N-[1-(1H-indol-3-ylmethyl)pentyl]-2-[3-(trifluoromethyl)-6,7-dihydro-4H-isoxazolo[4,5-c]pyridin-5-yl]thiazole-5-carboxamide]: the IC50 came to 800 nM.

As for `CCCCC(Cc1c[nH]c2ccccc12)NC(=O)c1cnc(N2CCc3noc(C(F)(F)F)c3C2)s1` (centres unmarked) [Example 12, N-[1-(1H-indol-3-ylmethyl)pentyl]-2-[3-(trifluoromethyl)-6,7-dihydro-4H-isoxazolo[4,3-c]pyridin-5-yl]thiazole-5-carboxamide], the IC50 worked out at 900 nM.

Turning to `CCCCC(Cc1c[nH]c2ccccc12)NC(=O)c1cnc(N2CCn3c(cc(C(F)(F)F)cc3=O)C2)s1` (centres unmarked) [Example 13, N-[1-(1H-indol-3-ylmethyl)pentyl]-2-[6-oxo-8-(trifluoromethyl)-3,4-dihydro-1H-pyrido[1,2-a]pyrazin-2-yl]thiazole-5-carboxamide], the IC50 was 1400 nM.

On to `CCCCC(Cc1c[nH]c2ccccc12)NC(=O)c1cnc(N2CCn3c(C)nnc3C2)s1` (centres unmarked) [Example 14, N-[1-(1H-indol-3-ylmethyl)pentyl]-2-(3-methyl-6,8-dihydro-5H-[1,2,4]triazolo[4,3-a]pyrazin-7-yl)thiazole-5-carboxamide], for which the IC50 came to 1700 nM.

For `CCCCC(Cc1c[nH]c2ccccc12)NC(=O)c1cnc(N2CCc3oncc3C2)s1` (centres unmarked) [Example 15, 2-(6,7-dihydro-4H-isoxazolo[4,5-c]pyridin-5-yl)-N-[1-(1H-indol-3-ylmethyl)pentyl]thiazole-5-carboxamide], the IC50 was 1300 nM.

In the case of `CCCCC(Cc1c[nH]c2ccccc12)NC(=O)c1cnc(N2CCc3c(cnn3C)C2)s1` (centres unmarked) [Example 16, N-[1-(1H-indol-3-ylmethyl)pentyl]-2-(1-methyl-6,7-dihydro-4H-pyrazolo[4,3-c]pyridin-5-yl)thiazole-5-carboxamide], the IC50 turned out to be 1000 nM.

In the case of `CCCCC(Cc1c[nH]c2ccccc12)NC(=O)c1cnc(N2CCn3ccnc3C2)s1` (centres unmarked) [Example 17, 2-(6,8-dihydro-5H-imidazo[1,2-a]pyrazin-7-yl)-N-[1-(1H-indol-3-ylmethyl)pentyl]thiazole-5-carboxamide], the IC50 is 1600 nM.

`CCCCC(Cc1c[nH]c2ccccc12)NC(=O)c1cnc(N2CCn3c(nnc3C(F)(F)F)C2)s1` (centres unmarked) [Example 18, N-[1-(1H-indol-3-ylmethyl)pentyl]-2-[3-(trifluoromethyl)-6,8-dihydro-5H-[1,2,4]triazolo[4,3-a]pyrazin-7-yl]thiazole-5-carboxamide]: the IC50 is 1200 nM.

With `CCCCC(Cc1c[nH]c2ccccc12)NC(=O)c1cnc(N2CCn3nccc3C2)s1` (centres unmarked) [Example 19, 2-(6,7-dihydro-4H-pyrazolo[1,5-a]pyrazin-5-yl)-N-[1-(1H-indol-3-ylmethyl)pentyl]thiazole-5-carboxamide], the half-inhibitory concentration (IC50) worked out at 1300 nM.

Regarding `CCCCC(Cc1c[nH]c2ccccc12)NC(=O)c1cnc(N2CCc3nn(C)cc3C2)s1` (centres unmarked) [Example 20, N-[1-(1H-indol-3-ylmethyl)pentyl]-2-(2-methyl-6,7-dihydro-4H-pyrazolo[4,3-c]pyridin-5-yl)thiazole-5-carboxamide], the IC50 amounted to 1200 nM.

Source of the values: patent publication US10889584B2, “Bicyclic bis-heteroaryl derivatives as modulators of protein aggregation” (UCB Biopharma SRL, priority 2017, dated 2021).
